Experimental findings from PubChem BioAssay (NCI) are described below.

Each structure is given as a SMILES string. “And” between values parts separate entries of the source, which are not always exact repeats. Equal entries are not always repeated.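 All cell lines were grown in 96-well plates and treated with compound for 48 hours. TGI denotes the concentration required for complete inhibition of growth.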 Bounds are passed on as bounds.

Test in all cases: inhibition of tumour cell growth, NCI panel, 48 h
Assay [1] concerns EKVX NSCLC.
For assay [2], the system named is MDA-MB-231 breast.
The subject of assay [3] is HOP-92 NSCLC.
The test system of assay [4] is HCT-116 colon.
Assay [5] concerns HL-60(TB) leukemia.
Assay [6] concerns SF-295 CNS.
The subject of assay [7] is U251 CNS.
The test system of assay [8] is OVCAR-8 ovarian.
In assay [9] the test system is COLO 205 colon.
Assay [10] relates to OVCAR-5 ovarian.
The subject of assay [11] is CCRF-CEM leukemia.
In assay [12] the test system is MDA-N.
Assay [13] concerns KM12 colon.

For the compound `COC(=O)c1cc(Br)c(C(=O)C(Cl)(Cl)Cl)[nH]1`, the TGI in [1], in [2], in [3], in [4], in assay [5] and in assay [6] was over 100 µM each time. The TGI in assay [7], in assay [8], in assay [9], in [10], in [11] and in assay [12] was over 100 µM each time. Also, the TGI in [13] was over 100 µM.

For `O=S(=O)(O)c1cc(S(=O)(=O)O)c2c(N=Nc3cccc4ccccc34)c(O)ccc2c1`, the TGI in [1], in [2], in assay [3], in assay [4], in assay [5] and in assay [6] was over 100 µM throughout. For the same compound, the TGI in assay [7], in assay [8], in assay [9], in [10], in assay [11] and in [12] was over 100 µM throughout. Also, the TGI in assay [13] was over 100 µM.

With `O=C1CCC(=O)N1CNc1ccc2c(c1)Sc1ccccc1O2`, the TGI in [1] is 75.4 µM; in assay [2], over 100 µM; in assay [3] it was 56.7 µM; in assay [4] it was 45.7 µM; in assay [5], 54.8 µM; in [6], over 100 µM. In addition, the TGI in assay [7] is over 100 µM; in [8] it was 68.5 µM; in [9] it was 35.3 µM; in [10], over 100 µM; in [11] it was over 100 µM; in assay [12] it was over 100 µM. This compound showed a TGI in assay [13] of over 100 µM.

As to `CCCCCCCC/C=C\CCCCCCCCNc1ccn(C2OC(COP(=O)(O)OC3CC(n4cc(F)c(=O)[nH]c4=O)OC3CO)C(O)C2O)c(=O)n1` (stereo unspecified), the TGI in [1] is over 100 µM; in assay [2], over 100 µM; in [3], over 100 µM; in [4], over 100 µM; in assay [5], 45.7 µM; in [6], over 100 µM. The TGI in assay [7] is over 100 µM; in assay [8], over 100 µM; in assay [9], over 100 µM; in assay [10], over 100 µM; in [11], 17.9 µM; in assay [12], over 100 µM. Moreover, in assay [13], the TGI was over 100 µM.

In the case of `CCCCCCNC(=O)c1cc(NCc2cc(OC)ccc2OC)ccc1O`, the TGI in assay [1] stood at 63.1 µM; in assay [2] it was 46.7 µM; in assay [3] it was 31.7 µM; in [4], 49.6 µM; in [5], 46 µM; in [6], 30.1 µM. Besides, the TGI in assay [7] was 41.1 µM; in assay [8] it was 86.7 µM; in assay [9], 33.9 µM; in assay [10], over 100 µM; in [11], 68.6 µM; in [12] it was 41.8 µM. The compound also yielded a TGI in assay [13] of 80 µM.

Consider `COC(=O)c1cc(NC2OCC(OC(C)=O)C(OC(C)=O)C2OC(C)=O)nc(SC)c1C(=O)OC` (stereo unspecified), for which the TGI in assay [1], in [2], in assay [3], in assay [4], in [5] and in [6] was over 100 µM each time. For the same compound, the TGI in [7], in assay [8], in assay [9], in assay [10], in assay [11] and in [12] was over 100 µM each time. The compound further returned a TGI in [13] of over 100 µM.

Consider `C=C(Cl)C(C)(Cl)CCC(Cl)C(C)(C)Cl` (stereo unspecified), for which the TGI is over 100 µM in [1]; 83.3 µM in assay [2]; over 100 µM in assay [3]; over 100 µM in assay [4]; over 100 µM in [5]; over 100 µM in [6]. Besides, the TGI in assay [7], in assay [9], in assay [10], in [11], in assay [12] and in assay [13] was over 100 µM in each case.

As to `C[C@]12CC[C@@H]3c4ccc(OC(=O)c5ccccc5)cc4CC[C@H]3[C@@H]1CCC2OC(=O)c1cccc2c(=O)c3ccccc3[nH]c12` (stereo partly specified), the TGI in assay [1] is 30.4 µM; in [2], 40.8 µM; in assay [3], 34.9 µM; in assay [4], 30.5 µM; in [5], over 100 µM; in [6], 37.5 µM. The TGI is 29.9 µM in assay [7]; 35.7 µM in assay [8]; 33.1 µM in assay [9]; 46.1 µM in [10]; over 100 µM in [11]; 27.8 µM in [12]. The TGI in assay [13] amounted to 29.6 µM.

As to `O=C(O)c1ccc(Nc2ccnc3cc(Cl)ccc23)cc1O`, the TGI in assay [1], in assay [2], in assay [3], in [4], in [5] and in assay [6] was over 100 µM throughout. The TGI in assay [7], in [8], in assay [9], in assay [10], in assay [11] and in assay [12] was over 100 µM throughout. Also, the TGI in [13] was over 100 µM.

For the compound `N#Cc1c(C#N)c(-c2cccc([N+](=O)[O-])c2)n(-c2ccccc2)c1N`, the TGI in assay [1], in [2], in assay [3], in assay [4], in [5] and in assay [6] was over 100 µM throughout. In addition, the TGI in assay [7], in assay [8], in assay [9], in [10], in assay [11] and in assay [12] was over 100 µM throughout. Moreover, the TGI in assay [13] is over 100 µM.

Turning to `c1ccc(N/N=C2\CC(c3ccccc3)Oc3ccccc32)cc1` (stereo unspecified), the TGI in assay [1] was 83.9 µM; in [2], over 100 µM; in assay [3] it was over 100 µM; in assay [4], over 100 µM; in [5], over 100 µM; in assay [6], over 100 µM. For the same compound, the TGI in assay [7], in assay [8], in assay [9], in assay [10], in assay [11] and in [12] was over 100 µM each time. In assay [13], the TGI is over 100 µM.

Turning to `CCC1(O)CC(OC2CC(N(C)C)C(OC3CC(O)C(OC4OC(C)C(=O)C=C4N)C(C)O3)C(C)O2)c2c(O)c3c(c(O)c2C1C(=O)OC)C(=O)c1cccc(O)c1C3=O` (stereo unspecified), the TGI in assay [1] is 0.351 µM and 0.0968 µM; in [2], 0.296 µM; in [3] it was 1.67 µM; in assay [4] it was over 100 µM; in assay [5] it was 0.108 µM; in assay [7], 1.08 µM. Moreover, the TGI in [8] is 0.261 µM; in [9], 0.116 µM; in assay [10], 0.16 µM and 0.966 µM; in [11] it was 0.0761 µM and 0.0126 µM; in [12], 0.118 µM and 0.012 µM; in assay [13], 0.2 µM.

Regarding `C=CCNC1=C2C[C@@H](C)C[C@@H](OC)[C@H](OC(=O)CN(C)C)[C@H](C)/C=C(\C)[C@@H](OC(N)=O)[C@H](OC)/C=C\C=C(/C)C(=O)NC(=CC1=O)C2=O`, the TGI stood at 21.8 µM in assay [1]; 10.5 µM in assay [2]; 23.3 µM in assay [3]; 16.2 µM in [4]; 13.7 µM in assay [5]; 13.5 µM in assay [6]. Also, the TGI in assay [7] is 19.7 µM; in assay [8], 63.1 µM; in [9], 1.64 µM; in [10] it was 25.7 µM; in assay [11] it was over 59.3 µM; in assay [12] it was 13.3 µM. Besides, in [13], the TGI was found to be 0.274 µM.

Regarding `COc1cccc2c1C(=O)C(=O)c1c-2oc(=O)c2cc(C)cc(OC)c12`, the TGI in assay [1] was over 75 µM; in assay [2], 70.6 µM; in assay [3] it was over 75 µM; in assay [4], over 75 µM; in assay [5], 49.9 µM; in assay [6], over 75 µM. The TGI is 23.2 µM in assay [7]; 30.6 µM in assay [8]; over 75 µM in [9]; over 75 µM in assay [10]; over 75 µM in [11]; 38.7 µM in [12]. The compound also yielded a TGI in assay [13] of 53.9 µM.

Take `CC(=O)N1NC(c2ccccc2)=CC(=O)/C1=C/C(=O)c1ccccc1`: the TGI was over 100 µM in assay [1]; over 100 µM in [2]; over 100 µM in assay [3]; over 100 µM in [4]; 76.3 µM in assay [5]; over 100 µM in assay [6]. Moreover, the TGI in assay [7], in [8], in assay [9], in assay [10], in assay [11] and in assay [12] was over 100 µM throughout. This compound displayed a TGI in assay [13] of over 100 µM.

In the case of `O=C1c2ccccc2C(=O)c2c(OCC3CO3)ccc(OCC3CO3)c21` (stereo unspecified), the TGI in assay [1] was 35.5 µM; in assay [2], over 34 µM; in assay [3], 10.7 µM; in assay [4] it was 11.5 µM; in [5], 2.18 µM; in assay [6] it was 11.8 µM. In addition, the TGI in assay [7] was determined as 12.1 µM; in assay [8], 5.94 µM; in assay [9], 9.34 µM; in [10], 30.9 µM; in [11], 0.393 µM; in assay [12], 23.8 µM. The compound further registered a TGI in [13] of 11.4 µM.

Regarding `CC1=C(C)SC(=C2Sc3c(n(C)c(=O)[nH]c3=O)S2)S1`, the TGI in assay [1], in assay [2], in assay [3], in [4], in assay [5] and in [6] was over 100 µM each time. Also, the TGI in assay [7], in assay [8], in assay [9], in assay [10], in assay [11] and in assay [12] was over 100 µM throughout. Moreover, in [13], the TGI was over 100 µM.

Turning to `O=C(Sc1c(-c2ccccc2)c(=O)n(-c2ccccc2)c(=S)n1-c1ccccc1)c1ccc(Cl)cc1`, the TGI in [1], in assay [2], in assay [3], in [4], in assay [5] and in assay [6] was over 100 µM throughout. Also, the TGI in assay [7], in [8], in assay [9], in assay [10], in [11] and in [12] was over 100 µM throughout. The compound also displayed a TGI in [13] of over 100 µM.

Turning to `O=C(O)CN1CCNCCN(CC(=O)O)CC1`, the TGI in [1] was over 100 µM; in [2], over 100 µM; in assay [3] it was over 100 µM; in assay [4], over 37.3 µM; in assay [5] it was over 28.6 µM; in assay [6], over 100 µM. Moreover, the TGI in [7] is over 100 µM; in assay [8], 11.6 µM; in assay [9], 6.12 µM; in assay [10], over 100 µM; in [11], over 100 µM; in assay [12] it was over 100 µM. In assay [13], this compound registered a TGI of over 100 µM.

For `CCOC(=O)Cn1c(=O)c2nc(SC)sc2n(-c2ccc(C)cc2)c1=S`, the TGI in [1] was over 100 µM; in assay [2], over 100 µM; in assay [3], 68.1 µM; in assay [4], over 100 µM; in assay [5], over 100 µM; in assay [6] it was over 100 µM. The TGI in [7] is 71.6 µM; in assay [8], over 100 µM; in assay [9] it was over 100 µM; in [10], over 100 µM; in [11] it was over 100 µM; in [12] it was over 100 µM. The TGI in assay [13] was over 100 µM.

For `COC(=O)/C=C\c1ccc2c(c1)CC1(C2)Cc2ccc(/C=C/C(=O)OC)cc2C1` (stereo unspecified), the TGI in [1], in assay [2], in assay [3], in assay [4], in assay [5] and in assay [6] was over 31.6 µM throughout. For the same compound, the TGI in [7], in [8], in [9], in assay [10], in assay [11] and in [12] was over 31.6 µM throughout. In assay [13], this compound registered a TGI of over 31.6 µM.
